Reference: patent US20140162942A1, “INHIBITION OF CYP3A DRUG METABOLISM” (priority 2010, published 2014)
Read-outs that look alike come from different tables or passages of the source.

Biological target: T1, CYP1A2 (Homo sapiens, UniProt P05177)
T1 construct: Pooled human liver microsomes (from sixteen individuals) were used as the source of enzymes; tissue XenoTech, LLC; host or cells: human liver microsomes, pool of sixteen donors
T1 sequence (P05177 1-516): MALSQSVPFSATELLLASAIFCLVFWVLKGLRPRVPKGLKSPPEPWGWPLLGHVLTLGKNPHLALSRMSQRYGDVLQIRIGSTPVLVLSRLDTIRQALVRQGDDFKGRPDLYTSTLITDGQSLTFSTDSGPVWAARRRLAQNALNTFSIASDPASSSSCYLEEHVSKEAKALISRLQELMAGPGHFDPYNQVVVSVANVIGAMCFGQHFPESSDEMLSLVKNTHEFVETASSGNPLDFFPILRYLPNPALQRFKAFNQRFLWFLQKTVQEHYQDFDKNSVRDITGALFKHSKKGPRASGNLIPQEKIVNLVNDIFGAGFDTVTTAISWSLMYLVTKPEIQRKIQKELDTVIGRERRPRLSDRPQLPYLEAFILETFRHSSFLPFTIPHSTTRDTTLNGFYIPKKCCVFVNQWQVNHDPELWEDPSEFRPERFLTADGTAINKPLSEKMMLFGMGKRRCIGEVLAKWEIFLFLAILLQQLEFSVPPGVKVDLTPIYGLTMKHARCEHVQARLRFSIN
Experiment: CYP1A2 inhibition, phenacetin O-deethylation in human liver microsomes
Format: in vitro ADME
Conditions: for Potential for Time-Dep. Inhibition: comparison with and without 30-minute pre-incubation; for inhibition at 5 min, 100 µM: human, pH 7.4, probe phenacetin (O-deethylation), 60 μM
Protocol: The basis for many of the following incubation conditions is described in the following references: Madan, et al., 2002,^(1) Huang, 2004,^(3) Ogilvie, et al., 2006,^(6) Pearce, et al., 1996,^(7) Tucker, et al., 2001,^(4) and Walsky and Obach, 2004.^(5) In general, incubations were conducted at approximately 37° C. in 400-μL incubation mixtures (target pH 7.4) containing high purity water, potassium phosphate buffer (50 mM), MgCl2 (3 mM), EDTA (1 mM), an NADPH-generating system [always the mixture of the following: NADP (1 mM), glucose-6-phosphate (5 mM), glucose-6-phosphate dehydrogenase (1 Unit/mL)], and marker substrate at the final concentrations indicated. Pooled human liver microsomes (from sixteen individuals) were used as the source of enzymes (Section 1.3.1.2). The concentrations of marker substrates were based on the Km and Vmax data that were determined previously (data not shown).
Due to the possibility that boceprevir may bind to microsomal protein or lipids, an attempt was made to design these experiments such that, in as many cases as possible, the microsomal protein, incubation time, and phosphate buffer concentration were 0.1 mg/mL, 5 minutes and 50 mM, respectively, for assays performed with human liver microsomes (Table 1). […] Since it is not imperative that the concentration of marker substrates be exactly equal to Km, the marker substrate concentrations were rounded up or down, as applicable, to simplify the experimental design (data not shown). […] Thus, the final incubation concentration of phenacetin was 60 μM (Table 1).
The ability of boceprevir to inhibit the CYP enzymes listed in Section 1.2.1 was investigated with a pool of sixteen individual human liver microsomal samples at the concentrations indicated in Table 1. Aliquots of the stock and/or working solutions of boceprevir were manually added to buffer mixtures containing the components described in Section 1.3.21. Incubation mixtures were prepared in bulk to obviate the need for directly pipetting very small volumes (i.e., 1 μL or less). Incubations containing no boceprevir (0 μM) contained the vehicle used to dissolve boceprevir (i.e., 1% methanol).
The Tecan liquid handling system conducted all remaining incubation steps, with the exception of the centrifugation. Aliquots of the buffer mixtures were then automatically added to 96-well plates at the appropriate locations in duplicate. Aliquots of a substrate working solution were added to the 96-well plates, prior to initiating reactions, to give the final concentrations indicated in Table 1. Reactions were initiated with the addition of an aliquot of an NADPH-generating system. Reactions were automatically terminated at approximately 5 minutes, by the addition of the appropriate internal standard (Table 5) and stop reagent; acetonitrile. Precipitated protein was removed by centrifugation (920 g for 10 minutes at 10° C.). Standards and quality control samples were similarly prepared with the addition of authentic metabolite standards.
To examine its ability to act as a time-dependent inhibitor, boceprevir (at the same concentrations used to evaluate direct inhibition) was pre-incubated at 37±1° C., in duplicate, with human liver microsomes and an NADPH-generating system for approximately 30 minutes. This pre-incubation allowed for the generation of intermediates that could inhibit human CYP enzymes. The pre-incubations were initiated with the addition of an aliquot of an NADPH-generating system. […] Reactions were automatically terminated, at approximately 5 minutes, by the addition of the appropriate internal standard (Table 5) and stop reagent; acetonitrile. Precipitated protein was removed by centrifugation (920 g for 10 minutes at 10° C.). Incubations containing no boceprevir (0 μM) and incubations that contained boceprevir but were not pre-incubated, served as negative controls.

CC(C)(C)NC(=O)NC(C(=O)N1CC2C([C@H]1C(=O)NC(CC1CCC1)C(=O)C(N)=O)C2(C)C)C(C)(C)C (stereo partly drawn) [Boceprevir, (1R,2S,5S)—N-[(2Ξ)-4-amino-1-cyclobutyl-3,4-dioxobutan-2-yl]-3-{(2S)-2-[(tert-butylcarbamoyl)amino]-3,3-dimethylbutanoyl}-6,6-dimethyl-3-azabicyclo[3.1.0]hexane-2-carboxamide]
Potential for Time-Dep. Inhibition: little or no | Potential for Time-Dep. Inhibition (listed as boceprevir): no discernable time-dependent inhibition | IC50 (direct inhibition, zero-minute pre-incubation, pooled human liver microsomes): > 100 µM | inhibition at 5 min, 100 µM (pooled human liver microsomes, direct inhibition, zero-minute pre-incubation, read-out: Max. Inhib. at 100 μM): 22% | inhibition at 5 min, 100 µM (pooled human liver microsomes, time-dependent inhibition, 30-minute pre-incubation, read-out: Maximum Inhibition at 100 μM): 9.8% | IC50 (time-dependent inhibition, 30-minute pre-incubation): > 100 µM
